Data from US20240279217A1, “Heterocyclic compounds for the treatment of tuberculosis” (TECNIMEDE - SOCIEDADE TÉCNICO-MEDICINAL, SA, priority 2021, published 2024).
pIC50: −log10 of the molar value. ≈ marks a conversion by molar mass, not a printed value.

How the values were obtained:
[1] = test system: HepG2 cell line; assay: In vitro cytotoxicity assay (MTS tetrazolium reduction); format: cell-based; conditions: HepG2, 48 h
Description: In an embodiment, in vitro cytotoxicity assay was carried out. In vitro cytotoxicity assay was performed in HepG2 cell line using a tetrazolium reduction assay for cell viability evaluation (MTS reduction as described by Cory A. et al (Cancer Commun. 1991, 3 (7), 207-212)). The assay was performed in 96-well plates for 48 h at 37° C. and 5% CO2 in incubation medium (low glucose DMEM with Glutamax, 10% FBS, 1% Pen/Strep and DMSO). Cells were exposed to 8 different compound concentrations in successive dilutions (usually, base 2), plus a positive control (a compound in a concentration known to decrease cell viability above 50%) and a negative control (incubation medium). Six replicate wells were assayed for each condition. Compound stock solutions were prepared in DMSO at 20 mM, whenever possible, filter sterilized, aliquoted and stored at −20° C. The maximum compound concentrations tested depend on its solubility in incubation medium, and on the maximum DMSO percentage allowable without loss of cell viability. At the end of the incubation period, tetrazolium reagent was added (CellTiter 96′ AQueous Solution from Promega); cells were incubated for another 3 hours in order to promote tetrazolium reduction to formazan by viable cells. The amount of soluble formazan produced was evaluated by 490 nm absorbance reading in a spectrophotometer plate reader. […] Whenever possible, IC50 was calculated as the concentration of compound that reduces cell viability by 50%.

[2] = test system: H37Rv M. tuberculosis (strain ATCC 25618); assay: Mycobacterium tuberculosis susceptibility assay REMA (resazurin microtiter assay); format: cell-based
[3] = Human plasma protein binding (PPB) assay, equilibrium dialysis; format: in vitro ADME; conditions: non-diluted plasma, pH 7.4, percentage of plasma protein bounded compound, 5 hours dialysis, read-out: hPPB
Description: In an embodiment, human plasma protein binding (PPB) assay was carried out. The assay was performed in a multiple-use 96-well dialysis unit (HTD96b dialyzer). Each individual well unit consisted of 2 chambers separated by a vertically aligned dialysis membrane of predetermined pore size (MWCO 12-14 kDa). 120 μl of non-diluted plasma spiked with the compound (1 μM, 1% final DMSO concentration) was added to one chamber and the same volume of phosphate buffer saline pH 7.4 to the other chamber. HTD96b dialyzer was covered with adhesive sealing film and incubated at 37° C. and 100 rpm orbital shaking for 5 hours. Verapamil was also evaluated in parallel as reference compound. For sample preparation, an aliquot of the content of each chamber was mixed with the same volume of the blank opposite matrix. […] Supernatants were analysed using a Shimadzu VP HPLC system with a reverse phase column, coupled with a tandem mass spectrometer API 3000 (PE Sciex). […]
The percentage of plasma protein bounded compound and its recovery were calculated using the equations below: […]
The percentage of plasma protein bounded compound and its recovery were calculated using the values obtained for each compound in the quantification of the 3 samples (in buffer, plasma and standard solution).

[4] = Metabolic stability assay in liver microsomes; format: in vitro ADME; conditions: human, pH 7.4, 37° C., 60 minutes
Description: In an embodiment, metabolic stability assay was carried out. Metabolic stability was assessed by incubating test compounds in 96-well plates in 5 aliquots of 40 μL each (one for each time point) in liver microsomal incubation medium. This medium contained MgCl2 (3.3 mM), NADPH-cofactor system (NADPH (3 mM), glucose-6-phosphate (5.3 mM), glucose-6-phosphate dehydrogenase (0.67 units/ml)) and 0.42 mg of liver microsomal protein per ml in phosphate buffer (100 mM, pH 7.4). Control incubations were performed replacing the NADPH-cofactor system by phosphate buffer. Test compounds (1 μM, final solvent concentration 1.6%) were incubated with microsomes at 37° C. and 100 rpm orbital shaking.
Imipramine and Propranolol were incubated in parallel as reference compounds. Each reaction was performed in duplicate. Five time points over a duration 60 minutes were analysed. The reactions were stopped by adding 12 volumes of 90% acetonitrile in water to incubation aliquots, followed by protein sedimentation by centrifugation. Supernatants were analysed using a Shimadzu VP HPLC system with a reverse phase HPLC column, coupled with tandem mass spectrometer API 3000 (PE Sciex). […] The elimination constant (kel), half-life (t1/2) and intrinsic clearance (Clint) were determined in plot of In(AUC) versus time, using linear regression analysis for each test and reference compound.

[5] = Stability in human plasma (PS) assay; format: in vitro ADME; conditions: 37° C., 120 minutes, read-out: t1/2 (min) hPS
Description: In an embodiment, stability in human plasma (PS) assay was carried out. Test compounds (1 μM, final DMSO concentration 1%) were incubated in 5 aliquots of 70 μL each (one for each time point), in duplicates, at 37° C. with 100 rpm orbital shaking. Five time points over a duration 120 minutes have been analysed. Two reference compounds were analysed in parallel. The reactions were stopped by the addition of 420 μL of acetonitrile-water mixture (90:10) and subsequent plasma proteins sedimentation were achieved by centrifugation. Supernatants were analysed in a Shimadzu VP HPLC system with a reverse phase column, coupled with a tandem mass spectrometer API 3000 (PE Sciex). Both the positive and negative ion modes of the TurbolonSpray ion source were used. Acquisition and analysis of the data were performed using Analyst 1.5.2 software (PE Sciex). The percentage of the test compounds remaining after incubation in plasma and their half-lives (T1/2) were calculated.

[6] = Distribution coefficient (Log D) determination, octanol/PBS pH 7.4; format: physicochemical; conditions: octanol / phosphate buffer saline pH 7.4
Description: In an embodiment, distribution coefficient (Log D) determination assay was carried out. Test compounds were incubated in Eppendorf-type polypropylene microtubes in triplicates: a 5 μL aliquot of a 10 mM DMSO stock of each test compound were added into the previously mutually saturated mixture containing 500 μL of phosphate buffer saline (pH 7.4) and 500 μL of octanol. The solution was allowed to mix in a rotator for 1 hour at 30 rpm. Phase separation was assured by centrifugation. The octanol phase was diluted 100-fold with 40% acetonitrile in water for analysis, and aqueous phase was analysed without dilution. Mebendazole was used as a reference compound. All samples (both phases) were analysed in a Shimadzu VP HPLC system with a reverse phase column, coupled with tandem mass spectrometer API 3000 (PE Sciex). The TurbolonSpray ion source was used in positive ion mode. Acquisition and analysis of the data were performed using Analyst 1.5.2 software. Distribution coefficients of the tested compounds were calculated as the logarithm of the partition ratios (D) in both solvents, according to the equation below.
[formula] • where: So—peak area of the compound in octanol phase • Sp—peak area of the compound in phosphate buffer saline phase

COc1cccc2ccc(N3CCC(c4nc(-c5ccc(OC(F)(F)F)cc5)no4)CC3)nc12 [Compound 3, 5-(1-(8-methoxyquinolin-2-yl)piperidin-4-yl)-3-(4-(trifluoromethoxy)phenyl)-1,2,4-oxadiazole]
pIC50 ([1]; Homo sapiens): < 4.00 | pIC50 ([1]; Table 2, cytotoxicity, MTS): < 4.00 | MIC ([2]; Mycobacterium tuberculosis, 144 h, read-out: REMA MIC): 7.8 to 15.6 µM (≈ 3.67 to 7.34 µg/mL) | REMA MIC ([2]; Table 2, MTB growth REMA, H37Rv, Middlebrook 7H9, 6 days at 37° C.): +++ (7.8-15.6) | fraction unbound at 5 h, 1 μM [3]: ≤ 0.001 | half-life at 1 μM [4]: 3.03 h | microsomal CLint at 1 μM [4]: 9.2 µL/min/mg | half-life at 1 μM [5]: > 240 min | logD [6]: 5.34
